From patent US9339454B2, “Skin whitening agent” (Kao Corporation, priority 2011, dated 2016)

Target: T1, dopa oxidase (Homo sapiens, UniProt P14679)
T1 sequence (P14679 19-529): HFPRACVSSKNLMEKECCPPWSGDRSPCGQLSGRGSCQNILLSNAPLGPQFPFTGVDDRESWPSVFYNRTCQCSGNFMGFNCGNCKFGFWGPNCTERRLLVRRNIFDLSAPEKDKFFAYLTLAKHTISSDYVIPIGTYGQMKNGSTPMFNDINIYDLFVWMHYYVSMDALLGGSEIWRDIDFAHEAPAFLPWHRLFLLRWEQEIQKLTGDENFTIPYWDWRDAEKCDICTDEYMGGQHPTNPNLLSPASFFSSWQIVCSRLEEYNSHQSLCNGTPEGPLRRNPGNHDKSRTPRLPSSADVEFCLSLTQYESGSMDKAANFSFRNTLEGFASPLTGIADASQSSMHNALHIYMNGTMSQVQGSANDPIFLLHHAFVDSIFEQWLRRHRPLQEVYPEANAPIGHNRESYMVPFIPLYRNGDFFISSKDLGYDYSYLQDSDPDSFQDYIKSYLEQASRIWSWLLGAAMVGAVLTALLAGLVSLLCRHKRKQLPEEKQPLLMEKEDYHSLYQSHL
Assay: Dopa oxidase activity in cultured melanocytes (MBTH method)
Assay type: cell-based
Conditions: for inhibition at 0.5 µM: evaluation concentration 0.5 μM; for inhibition at 0.5 µM / inhibition at 1 µM / inhibition at 0.1 µM: relative to control, read-out: Dopa oxidase inhibitory rate (%); for inhibition at 1 µM: evaluation concentration 1.0 μM; for Dopa oxidase activity of fractions, result in words: activity-guided fractionation of haguro-so 50% ethanol extract, same procedure as Example 1; for inhibition at 0.1 µM: evaluation concentration 0.1 μM
Description: Normal human neonatal epidermal melanocytes (NHEMs; KURABO INDUSTRIES, LTD.) were seeded in a 96-well plates at a density of 1×10^4 cells/well ([…]) and cultured at 37° C. under a 5% CO2. Cells were maintained in Medium 254 (KURABO INDUSTRIES, LTD.) containing growth supplement (HMGS) without PMA.
After 3-day culture, the haguro-so extracts (water extract, 50% ethanol extract, or 95% ethanol extract) prepared in accordance with the above Production Examples 1 to 3 and having an evaporation residue of 1.0 w/v % were each added to give a final concentration shown in Table 1 together with Endothelin-1 (ET-1), SCF, α-MSH, Histamine, and PGE2 adjusted to have a final concentration of 1 nM in each medium, and cultured under the conditions of 37° C. and a 5% CO2 for 3 days. For a control, an ethanol aqueous solution (10%, 50%, or 95%) of the equal amount was added.
After completion of culture, Alamar Blue (Invitrogen) reagent was added in an amount of 20 μL/well and incubated for 2 to 3 hours, followed by measuring the fluorescence intensity of the medium to measure the cellular respiration activity. […] The dopa oxidase activity was measured by the following method with reference to the MBTH method (Winder A. et al., 1991, Eur. J. Biochem. 198: 317-326).
To each of the wells containing the solubilized cell solution, 80 μL of the above assay buffer, 60 μL of 20.7 mM MBTH (3-methyl-2-benzothiazolinon hydrazone) solution, and 40 μL of 5 mM L-dopa(L-dihydroxyphenylalanine) solution as a substrate were added, reacted at 37° C. for 30 to 60 minutes, thereby measuring the color reaction thereof at 490 nm absorbance (N=3). The measured values were shown in the relative value to the result of the control.
Normal human neonatal epidermal melanocytes (NHEMs; KURABO INDUSTRIES, LTD.) were inoculated in a 96-well plate in a cell density of 1×10^4 cells/well (100 μL/well) and cultured at 37° C. under a 5% CO2. The medium used was Medium 254 containing PMA(−) growth supplement (HMGS).
After 3-day culture, each of the compounds shown in Table 4 was added to give final concentrations shown in the same Table, together with Endothelin-1 (ET-1), SCF, α-MSH, Histamine, and PGE2 adjusted to give a final concentration of 1 nM in each medium, and cultured under the conditions of 37° C. and a 5% CO2 for 3 days. For a control, a DMSO solution of the equal amount was added.
After completion of the culture, Alamar Blue (Invitrogen) reagent was added in an amount of 20 μL/well and incubated for 2 to 3 hours, followed by measuring the fluorescence intensity of the medium to measure the cellular respiration activity. […] The dopa oxidase activity was measured by the following method with reference to the MBTH method (Winder A. et al., Eur. J. Biochem., 1991, 198: 317-326).
To each of the wells containing the solubilized cell solution, 80 μL of the above assay buffer, 60 μL of 20.7 mM MBTH (3-methyl-2-benzothiazolinon hydrazone) solution and 40 μL of 5 mM L-dopa (L-dihydroxyphenylalanine) solution as a substrate were added, reacted at 37° C. for 30 to 60 minutes, thereby measuring the color reaction thereof at 490 nm absorbance (N=3).

COc1cc2c(O)c3c(c(-c4ccc5c(c4)OCO5)c2cc1OC)C(=O)OC3 [Compound 4, Diphyllin] was tested, and the inhibition at 0.5 µM (NHEMs, 3 days) was 20% and the inhibition at 1 µM (NHEMs, 3 days) was 40%.

For COc1cc2c(O[C@H]3OCC(O)(CO)C3O)c3c(c(-c4ccc5c(c4)OCO5)c2cc1OC)C(=O)OC3 (stereo partly shown) [Compound 3, Tuberculatin], the “Dopa oxidase activity of fractions, result in words” value (“Dopa oxidase activity of fractions” for short) was “found”, the inhibition at 0.1 µM (NHEMs, 3 days) was 45% and the inhibition at 0.5 µM (NHEMs, 3 days) was 50%. The inhibition at 1 µM (NHEMs, 3 days) was 70%.

For COc1cc2cc3c(c(-c4ccc5c(c4)OCO5)c2cc1OC)C(=O)OC3 [Compound 2, Justicidin B], the “Dopa oxidase activity of fractions” value was “found”, the inhibition at 0.1 µM (NHEMs, 3 days) was 10% and the inhibition at 0.5 µM (NHEMs, 3 days) was 30%. For the same molecule, the inhibition at 1 µM (NHEMs, 3 days) was 50%.

COc1cc2c(OC(C)=O)c3c(c(-c4ccc5c(c4)OCO5)c2cc1OC)C(=O)OC3 [Compound 6, 4-acetoxy-6,7-dimethoxy-9-(1,3-benzodioxol-5-yl)naphtho[2,3-c]furan-1(3H)-one] gave an inhibition at 0.5 µM (NHEMs, 3 days) of 40% and an inhibition at 1 µM (NHEMs, 3 days) of 50%.

With COc1cc2c(OC)c3c(c(-c4ccc5c(c4)OCO5)c2cc1OC)C(=O)OC3 [Compound 1, Justicidin A] the “Dopa oxidase activity of fractions” value was “found”, the inhibition at 0.1 µM (NHEMs, 3 days) was 20% and the inhibition at 0.5 µM (NHEMs, 3 days) was 50%. The “Dopa oxidase inhibitory rate (%)” value (evaluation concentration printed 0.1 μM as third concentration after 0.1 and 0.5, NHEMs, 3 days) was 55%.

With CCOc1c2c(c(-c3ccc4c(c3)OCO4)c3cc(OC)c(OC)cc13)C(=O)OC2 [Compound 5, 4-Ethoxy-6,7-dimethoxy-9-(1,3-benzodioxol-5-yl)naphtho[2,3-c]furan-1(3H)-one] the inhibition at 0.1 µM (NHEMs, 3 days) was 40% and the inhibition at 0.5 µM (NHEMs, 3 days) was 60%.

Work on COc1c2c(c(-c3ccc4c(c3)OCO4)c3cc4c(cc13)OCO4)C(=O)OC2 [Compound 7, Justicidin F] yielded an inhibition at 0.1 µM (NHEMs, 3 days) of 20%.
